Test results as given in patent US11013717B1, “Methods and compositions for treating cancer using SERCA pump inhibitors” (priority 2018, dated 2021).

Tested on: CD8+ T-cells isolated from human PBMCs
Assay: Activation of anti-CD3/anti-CD28 stimulated CD8+ T-cells treated with SERCA inhibitors, cytokine release (IFNγ, TNFα) by intracellular staining flow cytometry
Type: cell-based
Conditions: for Fold Change % IFNγ+ Cells (Normalized to Bead Stimulated Only): overnight, anti-CD3/anti-CD28 bead stimulated human CD8+ T-cells; for T cell activation / interferon gamma (IFNγ) production / secretion by CD8+ T cells: human CD8+ T-cells stimulated with anti-CD3/anti-CD28 beads, overnight incubation, thapsigargin 1.5 μM, cyclopiazonic acid 3 μM, NS-1619 30-100 μM; for T cell activation: activation measured by cytokine release
Protocol: CD8+ T-cells were isolated from human PBMCs using negative magnetic bead selection (Stemcell Technologies). Cells stimulated with anti-CD3/anti-CD28 beads (Life Technologies) and were treated with different SERCA inhibitors: thapsigargin (1.5 μM), cyclopiazonic acid (3 μM), and NS-1619 (30-100 μM). All incubations were done overnight. Subsequent activation was measured by cytokine release using intracellular staining flow cytometry of IFNγ and TNFα, using fluorescently labeled antibodies (Biolegend).

Compound	Fold Change % IFNγ+ Cells (Normalized to Bead Stimulated Only) (30 μM) [fold]	Fold Change % IFNγ+ Cells (Normalized to Bead Stimulated Only) (100 μM) [fold]	T cell activation	interferon gamma (IFNγ) production / secretion by CD8+ T cells	Fold Change % IFNγ+ Cells (Normalized to Bead Stimulated Only) (3 μM) [fold]	Fold Change % IFNγ+ Cells (Normalized to Bead Stimulated Only) (1.5 μM) [fold]
O=c1[nH]c2cc(C(F)(F)F)ccc2n1-c1cc(C(F)(F)F)ccc1O [NS-1619]	1.1	2.68	led to T cell activation	increased		
CC(=O)C1=C(O)[C@@H]2[C@H]3c4c[nH]c5cccc(c45)C[C@H]3C(C)(C)N2C1=O [cyclopiazonic acid]					2.38	
C/C=C(/C)C(=O)O[C@H]1C(C)=C2[C@H]([C@@H]1OC(=O)CCCCCCC)[C@@](C)(OC(C)=O)C[C@H](OC(=O)CCC)[C@@]1(O)[C@H]2OC(=O)[C@@]1(C)O [thapsigargin]			led to T cell activation	increased		2.08
